According to US10927123B2, “Modulators of the beta-3 adrenergic receptor useful for the treatment or prevention of disorders related thereto” (Arena Pharmaceuticals, Inc., priority 2016, dated 2021):
Entries after “also recorded” stand apart in the source; their conditions may differ.

Tests used:
[1] = biological target: Beta-3 Adrenergic Receptor (Homo sapiens (Human), UniProt P13945); assay: HTRF cAMP antagonist assay (IC50 determination); type: cell-based; details: CHO-K1 cells stably expressing recombinant receptor; antagonism of isoproterenol at EC90; cAMP readout
Procedure, shortened: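 CHO-K1 cells stably expressing the recombinant receptor were preincubated with compound (10-point, 5-fold dilutions; top final typically 10 or 100 μM) in PBS with 1 mM IBMX, then stimulated with isoproterenol at its EC90 for 1 h at room temperature. cAMP was read by HTRF against an on-plate standard curve.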

normal rats = assay: Attenuation of negative contractile effect of BRL 37344 on left ventricular pressure in normal rats; type: in vivo, rat; details: test compound infusion 3, 10, 30 or 60 mg/kg, BRL 37344 bolus 3 μg/kg
Protocol: (§1) Beta-3 adrenergic receptor antagonists were evaluated for effects on cardiac contractility in normal and chronic heart failure (CHF) rats. Because beta-3 adrenergic receptor expression is weak in the normal rat heart, compounds were evaluated for the ability to attenuate the negative contractile effects of the beta-3 adrenergic receptor agonist BRL 37344 (Tocris Bioscience, Bristol, UK) in the normal rats. Because beta-3 adrenergic receptor expression is higher in the rat heart with CHF, a compound was evaluated for the ability to improve contractility compared to baseline in this CHF rat model.
A direct determination of left ventricular function was used for all rats to evaluate the effects of compounds on left ventricular contractility. Right carotid artery catheterization was used for contractility measurements. The rats were anesthetized with an intraperitoneal injection of INACTIN® (Cat #T-133, Sigma, St. Louis, Mo.) (100 mg/kg body weight), and a Millar MIKRO-TIP® pressure catheter (Cat #SPR-320NR, Millar, Inc., Houston, Tex.) was passed through the carotid artery into left ventricle. Left ventricular pressure (LVP) was monitored by LabChart with POWERLAB® Data Acquisition System (ADlnstruments, Sydney, Australia).
Jugular vein catheterization was used for compound administration. A silastic catheter (Cat #427411, BD, Franklin Lakes, N.J.) was introduced into the jugular vein, and a right venous catheter was connected to an automated drug delivery system (11 Plus Syringe Pump, Harvard Apparatus, Holliston, Mass.).
In the normal rats, 3 mg/kg, 10 mg/kg, 30 mg/kg, or 60 mg/kg of test compounds were administered starting 30-45 minutes after catheter implantation. A bolus injection of BRL 37344 (3 μg/kg) was administered via the left jugular vein 15-20 minutes after test compound infusion was started, and five minutes before compound infusion was stopped. A blood sample (800 μl) was then taken from the left venous catheter five minutes after the bolus injection of BRL 37344 (FIG. 25).

[2] = system: chronic heart failure (CHF) rats; assay: Left ventricular contractility in chronic heart failure (CHF) rats; type: in vivo, rat
Protocol: as §1, with “model. […]” for “model.”
Heart failure was evaluated weekly following surgery by testing impaired left ventricular function by echocardiography. Left ventricle end-diastolic volume (LVEDV) and left ventricle end-systolic volume (LVESV) were measured for at least three consecutive cardiac cycles in long-axis view images. Ejection Fraction (EF %) was calculated using the following formula: EF %=(LVEDV−LVESV)/LVEDV. […]
A direct determination of left ventricular function was used for all rats to evaluate the effects of compounds on left ventricular contractility. […] Left ventricular pressure (LVP) was monitored by LabChart with POWERLAB® Data Acquisition System (ADlnstruments, Sydney, Australia). […]
Development of CHF was monitored by echocardiography in rats after the surgically-induced myocardial infarction. […]

Beta-3 Adrenergic Receptor, sequence (P13945 whole entry, species assumed): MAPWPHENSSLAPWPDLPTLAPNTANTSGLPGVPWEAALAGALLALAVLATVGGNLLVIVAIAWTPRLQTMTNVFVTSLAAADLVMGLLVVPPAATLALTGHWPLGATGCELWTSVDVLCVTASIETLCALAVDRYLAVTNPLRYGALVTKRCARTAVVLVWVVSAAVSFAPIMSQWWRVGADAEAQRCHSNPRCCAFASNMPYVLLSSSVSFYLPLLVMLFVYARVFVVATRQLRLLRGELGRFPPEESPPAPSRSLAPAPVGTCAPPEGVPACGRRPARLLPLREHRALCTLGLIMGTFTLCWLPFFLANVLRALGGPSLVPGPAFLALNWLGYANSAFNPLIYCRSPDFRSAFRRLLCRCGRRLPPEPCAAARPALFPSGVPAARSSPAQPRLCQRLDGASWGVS

Row | IC50 [1] [nM] | SMILES | inhibition of the negative effect of beta-3 adrenergic receptor agonist BRL on LVP (normal rats) | contractility compared to baseline ([2]; rat with CHF, infusion 10 mg/kg then 30 mg/kg, 10 minutes each) | inhibition of negative effects of BRL on LVP in a rat with heart failure (figure legend) ([2]; rat with heart failure, FIG. 32)
1 | 17.5 | CN1CCOc2ncc(S(=O)(=O)N3CCC4(CC3)C[C@@H](NC[C@H](O)COc3cccc(S(=O)(=O)C5CC5)c3)CO4)cc21 [Compound 154, (S)-1-(3-(cyclopropylsulfonyl)phenoxy)-3-((R)-8-(1-methyl-2,3-dihydro-1H-pyrido[2,3-b][1,4]oxazin-7-ylsulfonyl)-1-oxa-8-azaspiro[4.5]decan-3-ylamino)propan-2-ol] | dose-dependently inhibited; also recorded: inhibition of negative effects of BRL on LVP |  | 
2 | 37.6 | CCn1cc(S(=O)(=O)N2CCC3(CC2)C[C@@H](NC[C@H](O)COc2cccc(S(C)(=O)=O)c2)CO3)c(=O)c2ccccc21 [Compound 310, 1-ethyl-3-((R)-3-((S)-2-hydroxy-3-(3-(methylsulfonyl)phenoxy)propylamino)-1-oxa-8-azaspiro[4.5]decan-8-ylsulfonyl)quinolin-4(1H)-one] | dose-dependently inhibited; also recorded: inhibition of negative effects of BRL on LVP |  | 
3 | 53.2 | NC(=O)CS(=O)(=O)c1cccc(OC[C@@H](O)CN[C@H]2COC3(CCN(S(=O)(=O)c4cnc5ccccc5c4)CC3)C2)c1 [Compound 123, 2-(3-((S)-2-hydroxy-3-((R)-8-(quinolin-3-ylsulfonyl)-1-oxa-8-azaspiro[4.5]decan-3-ylamino)propoxy)phenylsulfonyl)acetamide] | dose-dependently inhibited; also recorded: inhibition of negative effects of BRL on LVP |  | 
4 | 17.3 | CCOc1ccc(-c2ccc(CN)cc2)cc1S(=O)(=O)N1CCC2(CC1)C[C@H](NC[C@H](O)COc1cccc(S(=O)(=O)C3(CO)CC3)c1)CO2 [Compound 163, (S)-1-((S)-8-(4′-(aminomethyl)-4-ethoxybiphenyl-3-ylsulfonyl)-1-oxa-8-azaspiro[4.5]decan-3-ylamino)-3-(3-(1-(hydroxymethyl)cyclopropylsulfonyl)phenoxy)propan-2-ol] | dose-dependently inhibited; also recorded: inhibition of negative effects of BRL on LVP |  | 
5 | 25.1 | O=S(=O)(CCO)c1cccc(OC[C@@H](O)CN[C@H]2COC3(CCN(S(=O)(=O)c4cnc5ccccc5c4)CC3)C2)c1 [Compound 88, (S)-1-(3-(2-hydroxyethylsulfonyl)phenoxy)-3-((R)-8-(quinolin-3-ylsulfonyl)-1-oxa-8-azaspiro[4.5]decan-3-ylamino)propan-2-ol] | dose-dependently inhibited; also recorded: inhibition of negative effects of BRL on LVP | trend toward improved contractility with increased dosage | inhibition of negative effects of BRL on LVP
